Source: US8815857B2 (Boehringer Ingelheim International GmbH, priority 2011, dated 2014)
Values after ≈ are worked out from the molar mass of the structure shown.

Key:
[1] = molecular target: T1, Recombinant human soluble guanylate cyclase (sGC), alpha 1 / beta 1 subunits, heme-free (Homo sapiens, UniProt Q02108+Q02153); experiment: Molecular assay: cGMP formation by heme-free recombinant sGC (CisBio cGMP detection kit); format: biochemical; details: 300 pM heme-free sGC, 37° C., 60 min, cGMP readout; read-out: EC50 nM, Activity of Compounds in Molecular Assay
T1 construct: histidine tag (C); made in house; host or cells: Sf9 insect cells (baculovirus coinfection)
T1 sequence (Q02108 1-690 partner): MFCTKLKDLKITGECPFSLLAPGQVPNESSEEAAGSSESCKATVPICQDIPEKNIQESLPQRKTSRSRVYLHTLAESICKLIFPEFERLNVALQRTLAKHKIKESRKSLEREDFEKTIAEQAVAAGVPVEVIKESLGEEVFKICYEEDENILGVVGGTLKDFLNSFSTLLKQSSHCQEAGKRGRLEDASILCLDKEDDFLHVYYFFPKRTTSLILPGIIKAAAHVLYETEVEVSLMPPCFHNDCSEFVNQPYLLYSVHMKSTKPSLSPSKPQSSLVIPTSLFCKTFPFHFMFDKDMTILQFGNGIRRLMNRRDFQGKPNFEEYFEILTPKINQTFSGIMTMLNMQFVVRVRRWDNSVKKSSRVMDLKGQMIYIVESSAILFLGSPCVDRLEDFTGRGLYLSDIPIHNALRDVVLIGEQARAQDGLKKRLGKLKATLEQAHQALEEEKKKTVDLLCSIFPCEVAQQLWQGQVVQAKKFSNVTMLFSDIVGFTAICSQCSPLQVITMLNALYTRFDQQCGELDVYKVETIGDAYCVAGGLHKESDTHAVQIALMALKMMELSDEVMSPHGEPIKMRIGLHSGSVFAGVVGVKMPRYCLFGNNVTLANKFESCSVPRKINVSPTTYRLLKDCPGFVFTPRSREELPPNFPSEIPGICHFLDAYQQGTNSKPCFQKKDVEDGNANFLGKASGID
T1 sequence (Q02153 1-619): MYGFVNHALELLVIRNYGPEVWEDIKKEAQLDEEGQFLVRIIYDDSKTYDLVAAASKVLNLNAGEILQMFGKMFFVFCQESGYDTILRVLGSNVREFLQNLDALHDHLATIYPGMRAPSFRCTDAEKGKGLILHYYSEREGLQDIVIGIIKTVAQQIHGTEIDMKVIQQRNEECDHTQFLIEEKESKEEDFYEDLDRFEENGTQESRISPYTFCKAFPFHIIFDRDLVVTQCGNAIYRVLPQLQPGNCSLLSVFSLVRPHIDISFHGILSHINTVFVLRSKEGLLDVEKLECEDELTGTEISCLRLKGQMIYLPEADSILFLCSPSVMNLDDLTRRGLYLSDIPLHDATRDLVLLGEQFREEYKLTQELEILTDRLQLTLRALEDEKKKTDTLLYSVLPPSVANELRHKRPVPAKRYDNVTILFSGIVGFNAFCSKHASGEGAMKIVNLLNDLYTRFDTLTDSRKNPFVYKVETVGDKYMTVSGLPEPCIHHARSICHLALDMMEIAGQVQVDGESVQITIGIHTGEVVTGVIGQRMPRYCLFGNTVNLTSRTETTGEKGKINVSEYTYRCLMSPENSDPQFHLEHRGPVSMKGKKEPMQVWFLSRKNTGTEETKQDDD
How it was run: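 Heme-free His-tagged sGC (Sf9-expressed, Tween 20-treated lysate) at 300 pM incubated with compounds (1% DMSO) for 60 min at 37° C in MOPS pH 6.8 with 50 nM GTP, IBMX, TCEP. cGMP quantified by HTRF against calibration curve; EC50 from combined undiluted/diluted values.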

[2] = molecular target: T2, human soluble guanylate cyclase alpha 1 and beta 1 subunits (sGC) stably expressed in Chinese hamster ovary cells (Homo sapiens, UniProt Q02108+Q02153); experiment: sGC cellular activator assay: cGMP in CHO cells expressing human sGC, preincubated with ODQ; format: cell-based; details: 40 microM ODQ preincubation, 30 min at room temperature, presence or absence of 50% human serum not given, read-out: EC50 nM, Activity of Compounds in Cellular Assay
T2 construct: expressed in transfected cells; host or cells: Chinese hamster ovary cells, stably transfected
T2 sequence (Q02108 1-690 partner): T1 sequence (Q02108 1-690 partner)
T2 sequence (Q02153 1-619): T1 sequence (Q02153 1-619)
How it was run: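 EC50 values derive from HTRF cGMP measurement after test compounds act for thirty minutes at room temperature, with or without 50% human serum. Before dosing, the sGC-transfected CHO cells spend one hour with the inhibitor ODQ (40 microM) in IBMX- and 0.1% BSA-containing buffer.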

[3] = Assessment of solubility: HT solubility in pION buffer, UV spectrophotometry; details: kinetic from dmso stock
Method: Solubility is measured by the following method.
DMSO stock samples at 10 mM concentration are prepared. […] The samples are pierced and 100 ul of thawed samples are transferred into the PCR plate for analysis. Each sample is run in duplicate at each pH (pH 4.5 and 7.4). Up to 95 samples can be run in replicate at 2 pH's+1 DMSO (blank).
Preparation of pH 4.5 and 7.4 Buffers:
• pH 4.5 buffer:—To 12.5 of system solution (pION)qs to 500 mL of distilled water (pH 2.85-2.90); adjust the pH to pH 4.5 with 0.5 N NaOH. • pH 7.4 buffer: To 12.5 of system solution (pION)qs to 500 mL of distilled water (pH 2.85-2.90); adjust the pH to pH 7.4 with 0.5N NaOH. […] Procedure: Preparation of UV Blank Plate:
75 ul of buffer (pH 7.4 or pH 4.5) is added to UV plate followed by addition of 70 ul of N-propanol. The solution is mixed and the blank spectrum is read using spectrophotometer.
Preparation of Reference UV Plate:
10 ul of each stock sample (including DMSO control) is added to 190 ul of N-propanol to prepare the reference stock plate. Reference stock samples are mixed and 5 ul of each stock sample is added to UV blank plate after it is read spectrophotometrically. The reference stock sample is mixed with blank solution in UV plate and the reference spectrum is read using UV spectrophotometer.
Preparation of Sample for Incubation:
Solubility at pH 7.4:6 ul of each stock sample (including DMSO control) is added to the storage plate containing 600 ul of pH 7.4 buffer, mixed and incubated for 16-19 h. The plate is sealed well during the incubation process. The DMSO content in the sample is 1.0%. The concentration in deep well plates is 100 uM
6 ul of each stock sample (including DMSO control) is added to the deep well plate containing 600 ul of pH 4.5 buffer, mixed and incubated for 16-19 h. The plate is sealed well during the incubation process. The DMSO content in the sample is 1.0%. The concentration in deep well plates is 100 uM
Preparation of Sample UV Plate:
At the end of the incubation period, 100 uL of sample from the storage plate is vacuum filtered using a filter plate. This step wets the filters and the filtrate is discarded. Another 200 ul of the sample from the deep well plate is vacuum filtered using the same filter block but a clean filter plate. 75 ul of the filtrate from the filter plate is transferred to a UV sample plate. 75 ul of N-propanol is added to this UV plate. The solution is mixed and the spectrum is read using the UV spectrophotometer.
The spectra collected for blank, reference and sample from 250-498 nm is analyzed using pION software. If the sample precipitates out, the solubility is reported as XX μg/ml.

[4] = pION system solution buffer, pH 4.5, pH 4.5, aqueous buffer, Solubility (pH 4.5), pH 4.5 buffer, 16-19 h incubation, 1.0% DMSO
[5] = pION system solution buffer, pH 7.4, pH 7.4, aqueous buffer, Solubility (pH 7.4), pH 7.4 buffer, 16-19 h incubation, 1.0% DMSO
[6] = pH 6.8, aqueous buffer, Solubility (pH 6.8), pH 6.8

Structure (SMILES) | EC50 [1] [nM] | EC50 [2] [nM] | solubility [3, 4] [µg/mL] | solubility [3, 5] [µg/mL] | solubility [3, 6] [µg/mL]
Cc1ccc(OCc2ccc(CN3CCOCC3)cc2C)c(-c2csc(N3C[C@H]4C[C@@H](C3)[C@H]4C(=O)O)n2)c1 [Compound 237] | 240 | 130 | > 53 | > 53 | –
Cc1cc(CN2CCOCC2)ccc1COc1c(C)cccc1-c1csc(N2C[C@H]3CC[C@@H](C2)[C@H]3C(=O)O)n1 [Compound 206] | 170 | 88 | > 58 | > 58 | –
Cc1cc(CN2CCS(=O)(=O)CC2)ccc1COc1ccc(C#N)cc1-c1csc(N2CCC(C(=O)O)CC2)n1 [Compound 273] | 320 | 570 | 7.3 (≈ 12.6 µM) | > 82 | –
Cc1cc(C(=O)N2CCCCC2)ccc1COc1c(C)cccc1-c1csc(N2C3CCC2CC(C(=O)O)C3)n1 (stereo not drawn) [Compound 209] | 270 | 96 | 5.1 (≈ 9.11 µM) | > 55 | –
Cc1ccc(OCc2ccc(CN3CCOCC3)cc2C)c(-c2csc(N3CCC4(C(=O)O)CC4C3)n2)c1 (stereo not drawn) [Compound 218] | 170 | 18 | > 64 | 39 (≈ 73.1 µM) | –
Cc1cc(CN2CCS(=O)(=O)CC2)ccc1COc1ccc(F)cc1-c1csc(N2CC3CCC(C2)C3C(=O)O)n1 (stereo not drawn) [Compound 275] | 1800 | 670 | 0.6 (≈ 1 µM) | 4 (≈ 6.67 µM) | –
Cc1ccc(OCc2ccc(C(=O)N3CCCCC3)cc2C)c(-c2csc(N3C[C@H]4C[C@@H](C3)[C@H]4C(=O)O)n2)c1 [Compound 236] | 190 | 79 | 6.6 (≈ 12.1 µM) | > 54 | –
Cc1cc(CN2CCOCC2)ccc1COc1c(C)cccc1-c1csc(N2C3CCC2CC(C(=O)O)C3)n1 (stereo not drawn) [Compound 210] | 350 | 430 | > 58 | > 58 | –
Cc1cc(CN2CCS(=O)(=O)CC2)ccc1COc1c(C)cccc1-c1csc(N2C3CCC2CC(C(=O)O)C3)n1 (stereo not drawn) [Compound 205] | 80 | 200 | 9.5 (≈ 15.9 µM) | > 59 | –
Cc1cc(CN2CCS(=O)(=O)CC2)ccc1COc1ccc(Cl)cc1-c1csc(N2CC3CCC(C2)C3C(=O)O)n1 (stereo not drawn) [Compound 211] | 370 | 190 | 1.4 (≈ 2.27 µM) | 17 (≈ 27.6 µM) | –
Cc1ccc(OCc2ccc(CN3CCOCC3)cc2OC(F)(F)F)c(-c2csc(N3CCC(C(=O)O)CC3)n2)c1 [Compound 277] | 74 | 16 | 21 (≈ 35.5 µM) | 41 (≈ 69.3 µM) | –
Cc1ccc(OCc2ccc(CN3CCOC(C)C3)cc2C#N)c(-c2csc(N3C[C@H]4CC[C@@H](C3)[C@H]4C(=O)O)n2)c1 (stereo partly drawn) [Compound 238] | – | 39 | 4.9 (≈ 8.56 µM) | – | 5.2 (≈ 9.08 µM)
Cc1ccc(OCc2ccc(CN3CCOC(C#N)C3)cc2C#N)c(-c2csc(N3C[C@H]4CC[C@@H](C3)[C@H]4C(=O)O)n2)c1 (stereo partly drawn) [Compound 355] | – | 9.2 | 0.77 (≈ 1.32 µM) | – | 7 (≈ 12 µM)

More lines, now with the values ahead:

EC50 [1] [nM] | EC50 [2] [nM] | solubility [3, 4] [µg/mL] | solubility [3, 5] [µg/mL] | solubility [3, 6] [µg/mL] | Structure (SMILES)
45 | 19 | 3.7 (≈ 6.68 µM) | 21 (≈ 37.9 µM) | – | Cc1cc(C(=O)N2CCCCC2)ccc1COc1ccc(Cl)cc1-c1csc(N2CCC(C(=O)O)CC2)n1 [Compound 271]
1600 | 600 | 0.95 (≈ 1.74 µM) | > 54 | – | Cc1cc(C(=O)N2CCCCC2)ccc1COc1ccc(C#N)cc1-c1csc(N2CCC(C(=O)O)CC2)n1 [Compound 274]
22 | 15 | < 0.1 | 21 (≈ 36.6 µM) | 51 (≈ 88.9 µM) | Cc1ccc(OCc2ccc(C(=O)N3CCCCC3)cc2C)c(-c2csc(N3C[C@H]4CC[C@@H](C3)[C@@]4(C)C(=O)O)n2)c1 [Compound 214]
250 | 39 | 0.3 (≈ 0.536 µM) | > 55 | – | Cc1cc(C(=O)N2CCCCC2)ccc1COc1c(C)cccc1-c1csc(N2C[C@H]3CC[C@@H](C2)[C@H]3C(=O)O)n1 [Compound 208]
2900 | 650 | 2.7 (≈ 5.06 µM) | > 53 | – | Cc1ccc(OCc2ccc(C(=O)N3CCCCC3)cc2C)c(-c2csc(N[C@@H]3CC[C@H](C(=O)O)C3)n2)c1 [Compound 239]
260 | 170 | > 56 | > 56 | – | Cc1ccc(OCc2ccc(CN3CCN4CCCC4C3)cc2C)c(-c2csc(N3CCC(C(=O)O)CC3)n2)c1 (stereo not drawn) [Compound 350]
– | 29 | 0.17 (≈ 0.295 µM) | – | 59 (≈ 102 µM) | Cc1ccc(OCc2ccc(C(=O)N3CC[C@H](CO)C3)cc2C)c(-c2csc(N3C[C@H]4CC[C@@H](C3)[C@H]4C(=O)O)n2)c1 [Compound 325]
– | 11 | 0.13 (≈ 0.244 µM) | – | 36 (≈ 67.5 µM) | CCN(C)C(=O)c1ccc(COc2ccc(C)cc2-c2csc(N3C[C@H]4CC[C@@H](C3)[C@H]4C(=O)O)n2)c(C)c1 [Compound 303]
– | 100 | 1.7 (≈ 3.09 µM) | – | 63 (≈ 115 µM) | Cc1ccc(OCc2ccc(C(=O)N(C)CCO)cc2C)c(-c2csc(N3C[C@H]4CC[C@@H](C3)[C@H]4C(=O)O)n2)c1 [Compound 297]
– | 42 | 0.79 (≈ 1.26 µM) | – | 1.9 (≈ 3.04 µM) | Cc1ccc(OCc2ccc(CN3CCN(C(=O)C4CC4)CC3)cc2C#N)c(-c2csc(N3C[C@H]4CC[C@@H](C3)[C@H]4C(=O)O)n2)c1 [Compound 265]
– | 43 | 0.13 (≈ 0.225 µM) | – | 58 (≈ 100 µM) | COCCCN(C)C(=O)c1ccc(COc2ccc(C)cc2-c2csc(N3C[C@H]4CC[C@@H](C3)[C@H]4C(=O)O)n2)c(C)c1 [Compound 338]
